# Results from patent publication US9717718B2, “Anti-inflammatory compounds” (Phytoquest Limited, priority 2011, dated 2017).
# Entries after “also recorded” stand apart in the source; their conditions may differ.
# Key:
# α-D-glucosidase (Yeast) = biological target: T1, α-D-glucosidase (Yeast) (Saccharomyces cerevisiae, UniProt P53341); test: Glycosidase assay, α-D-glucosidase (Yeast); assay type: biochemical; details: 0.2 mM, negative value = stabilisation or promotion of enzyme activity
# T1 construct: purchased Sigma
# Protocol: (§1) All enzymes and para-nitrophenyl substrates were purchased from Sigma, with the exception of beta-mannosidase which came from Megazyme. Enzymes were assayed at 27° C. in 0.1 M citric acid/0.2M disodium hydrogen phosphate buffers at the optimum pH for the enzyme. The incubation mixture consisted of 10 μl enzyme solution, 10 μl of 1 mg/ml aqueous solution of sample and 50 μl of the appropriate 5 mM para-nitrophenyl substrate made up in buffer at the optimum pH for the enzyme. […] Final absorbances were read at 405 nm using a Versamax microplate reader (Molecular Devices). Assays were carried out in triplicate, and the values given are means of the three replicates per assay.
# [1] = test system: α-D-glucosidase (Bacillus); test: Glycosidase assay, α-D-glucosidase (Bacillus); assay type: biochemical; details: 0.2 mM
# Protocol: as §1
# α-D-glucosidase (Rice) = biological target: T2, α-D-glucosidase (Rice) (Oryza sativa subsp. japonica, UniProt Q653V7); test: Glycosidase assay, α-D-glucosidase (Rice); assay type: biochemical; details: 0.2 mM
# T2 construct: purchased Sigma
# Protocol: (§2) Enzymes were assayed at 27° C. in 0.1 M citric acid/0.2M disodium hydrogen phosphate buffers at the optimum pH for the enzyme. The incubation mixture consisted of 10 μl enzyme solution, 10 μl of 1 mg/ml aqueous solution of sample and 50 μl of the appropriate 5 mM para-nitrophenyl substrate made up in buffer at the optimum pH for the enzyme. […] Final absorbances were read at 405 nm using a Versamax microplate reader (Molecular Devices). Assays were carried out in triplicate, and the values given are means of the three replicates per assay.
# β-D-glucosidase = test: Glycosidase assay, β-D-glucosidase; assay type: biochemical; details: 0.2 mM
# Protocol: as §1
# α-D-galactosidase = test: Glycosidase assay, α-D-galactosidase; assay type: biochemical; details: 0.2 mM; negative value = stabilisation or promotion
# Protocol: as §1
# β-D-galactosidase = test: Glycosidase assay, β-D-galactosidase; assay type: biochemical; details: 0.2 mM
# Protocol: as §1
# α-L-fucosidase = test: Glycosidase assay, α-L-fucosidase; assay type: biochemical; details: 0.2 mM
# Protocol: as §1
# α-D-mannosidase = test: Glycosidase assay, α-D-mannosidase; assay type: biochemical; details: 0.2 mM; for percentage inhibition, α-D-mannosidase: negative value = stabilisation or promotion
# Protocol: as §1
# β-D-mannosidase = test: Glycosidase assay, β-D-mannosidase; assay type: biochemical; details: 0.2 mM; negative value = stabilisation or promotion
# Protocol: as §2
# Naringinase = test: Glycosidase assay, Naringinase; assay type: biochemical; details: 0.2 mM
# Protocol: as §2
# [2] = test system: N-acetyl-β-D-gluc (Bovine kidney); test: Glycosidase assay, N-acetyl-β-D-gluc (Bovine kidney); assay type: biochemical; details: 0.2 mM; negative value = stabilisation or promotion
# Protocol: as §1
# [3] = test system: N-acetyl-β-D-gluc (Jack bean); test: Glycosidase assay, N-acetyl-β-D-gluc (Jack bean); assay type: biochemical; details: 0.2 mM; negative value = stabilisation or promotion
# Protocol: as §1
# [4] = test system: N-acetyl-β-D-hexosaminidase; test: Glycosidase assay, N-acetyl-β-D-hexosaminidase; assay type: biochemical; details: 0.2 mM; negative value = stabilisation or promotion
# Protocol: as §2
# Amyloglucosidase = biological target: T3, Amyloglucosidase (Aspergillus niger, UniProt P69328); test: Glycosidase assay, Amyloglucosidase; assay type: biochemical; details: 0.2 mM
# T3 construct: purchased Sigma
# Protocol: as §2
# glucosidases = test: Glycosidase panel, summary in words for glucosidases; assay type: biochemical; details: 0.2 mM
# Protocol: as §1
# [5] = test system: equine endometrial explant, Prostaglandin F2α (PGF2α) secretion; test: In vitro equine endometrial explant culture, LPS-stimulated PGF2α secretion; assay type: cell-based, horse
# Protocol: The efficacy of ido-BR1 as an anti-inflammatory agent in a model of mucosal inflammation was tested. The model utilised was previously optimised and established (D M Nash, E A. Lane, S Herath and I M Sheldon (2008) Endometrial Explant Culture for Characterizing Equine Endometritis. American Journal of Reproductive Immunology. 59: 105-117). The model is comprised of an in vitro equine endometrial explant tissue culture system. […]
# Uterine tissue was collected from mares at an abattoir, the endometrial (mucosal) surface was dissected out, […] placed in culture as explants. […] The secretion of PGF2α is measured at 24 and 72 h after challenge with LPS in order to represent the innate and chronic immune response respectively.
# Explants were treated with control (media alone) or, in order to determine whether ido-BR1 affected spontaneous PGF2α, 0.5, 25 or 100 μg/ml ido-BR1 alone. […] The secretion of PGF2α was measured at 24 and 72 h after treatments were applied. […]
# β-glucuronidase = details: 0.2 mM
# Protocol: as §1
# T1 sequence (P53341 whole entry): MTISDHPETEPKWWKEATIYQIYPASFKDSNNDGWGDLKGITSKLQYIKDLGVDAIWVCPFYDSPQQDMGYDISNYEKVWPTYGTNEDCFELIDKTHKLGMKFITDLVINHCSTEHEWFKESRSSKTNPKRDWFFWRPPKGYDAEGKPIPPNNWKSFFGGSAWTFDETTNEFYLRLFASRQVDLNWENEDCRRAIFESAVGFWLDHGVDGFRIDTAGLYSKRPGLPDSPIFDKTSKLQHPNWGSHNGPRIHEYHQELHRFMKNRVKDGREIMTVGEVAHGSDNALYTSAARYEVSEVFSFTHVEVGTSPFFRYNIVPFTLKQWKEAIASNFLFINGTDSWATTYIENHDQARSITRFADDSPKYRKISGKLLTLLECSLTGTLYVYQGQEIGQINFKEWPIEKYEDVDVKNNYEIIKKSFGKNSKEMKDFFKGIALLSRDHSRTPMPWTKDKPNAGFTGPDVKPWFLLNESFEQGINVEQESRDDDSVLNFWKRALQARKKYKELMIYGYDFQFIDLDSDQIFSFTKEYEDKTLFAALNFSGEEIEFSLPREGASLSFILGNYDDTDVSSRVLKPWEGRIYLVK
# T2 sequence (Q653V7 34-885): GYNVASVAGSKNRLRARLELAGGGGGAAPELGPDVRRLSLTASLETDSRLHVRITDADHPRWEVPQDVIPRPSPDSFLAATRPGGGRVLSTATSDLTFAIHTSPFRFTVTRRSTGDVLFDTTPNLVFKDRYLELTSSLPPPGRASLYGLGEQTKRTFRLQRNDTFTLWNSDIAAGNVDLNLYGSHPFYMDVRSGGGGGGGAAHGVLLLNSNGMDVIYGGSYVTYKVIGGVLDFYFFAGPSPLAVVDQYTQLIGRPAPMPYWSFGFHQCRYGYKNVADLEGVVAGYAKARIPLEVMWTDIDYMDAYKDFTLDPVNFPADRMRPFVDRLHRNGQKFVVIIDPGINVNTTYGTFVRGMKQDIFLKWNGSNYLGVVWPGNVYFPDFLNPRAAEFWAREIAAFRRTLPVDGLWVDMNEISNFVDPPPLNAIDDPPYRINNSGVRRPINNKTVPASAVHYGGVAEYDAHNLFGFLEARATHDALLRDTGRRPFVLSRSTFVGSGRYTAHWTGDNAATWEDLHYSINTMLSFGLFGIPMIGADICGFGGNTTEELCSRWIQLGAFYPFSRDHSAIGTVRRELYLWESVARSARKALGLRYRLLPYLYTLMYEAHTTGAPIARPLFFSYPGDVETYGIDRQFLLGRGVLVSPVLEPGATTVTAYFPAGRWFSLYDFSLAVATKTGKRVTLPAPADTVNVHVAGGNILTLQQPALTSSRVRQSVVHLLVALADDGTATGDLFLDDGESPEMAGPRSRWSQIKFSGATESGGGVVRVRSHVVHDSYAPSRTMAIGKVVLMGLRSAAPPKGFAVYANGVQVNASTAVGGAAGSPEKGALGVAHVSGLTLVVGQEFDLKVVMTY
# T3 sequence (P69328 25-640): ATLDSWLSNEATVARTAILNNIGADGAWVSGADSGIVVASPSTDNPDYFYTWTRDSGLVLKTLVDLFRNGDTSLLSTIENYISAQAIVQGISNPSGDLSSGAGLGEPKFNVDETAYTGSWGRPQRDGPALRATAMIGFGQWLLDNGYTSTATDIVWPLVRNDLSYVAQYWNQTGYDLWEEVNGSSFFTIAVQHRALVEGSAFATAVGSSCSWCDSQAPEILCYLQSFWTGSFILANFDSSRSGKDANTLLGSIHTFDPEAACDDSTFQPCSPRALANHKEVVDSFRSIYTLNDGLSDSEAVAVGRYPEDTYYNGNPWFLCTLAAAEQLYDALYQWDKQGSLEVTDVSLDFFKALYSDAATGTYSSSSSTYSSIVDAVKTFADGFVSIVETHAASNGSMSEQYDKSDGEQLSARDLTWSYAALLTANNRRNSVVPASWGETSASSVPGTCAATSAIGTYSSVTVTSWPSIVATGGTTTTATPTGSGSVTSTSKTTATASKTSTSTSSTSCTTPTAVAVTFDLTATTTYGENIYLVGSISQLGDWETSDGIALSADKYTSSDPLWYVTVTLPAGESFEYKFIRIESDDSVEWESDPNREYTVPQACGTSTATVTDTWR
Structure (SMILES),"percentage inhibition, α-D-glucosidase (Bacillus) [1] [%]","percentage inhibition, β-D-glucosidase (β-D-glucosidase) [%]","percentage inhibition, α-D-galactosidase (α-D-galactosidase) [%]","percentage inhibition, β-D-galactosidase (β-D-galactosidase) [%]","percentage inhibition, α-D-mannosidase (α-D-mannosidase) [%]","percentage inhibition, β-D-mannosidase (β-D-mannosidase) [%]","percentage inhibition, N-acetyl-β-D-gluc (Bovine kidney) [2] [%]","percentage inhibition, N-acetyl-β-D-gluc (Jack bean) [3] [%]",inhibition of glucosidases (in words) (glucosidases),other results
"OC[C@H]1NC[C@H](O)[C@@H](O)[C@@H]1O [DNJ, reference compound]",99.5,63.7,−3.3,0.4,26.6,−19.0,−0.8,2.8,potent inhibition,"percentage inhibition, α-D-glucosidase (Yeast) (α-D-glucosidase (Yeast)): 35.7%; percentage inhibition, α-D-glucosidase (Rice) (α-D-glucosidase (Rice)): 99.6%; percentage inhibition, α-L-fucosidase (α-L-fucosidase): 5.9%; percentage inhibition, Naringinase (Naringinase): 20.8%; percentage inhibition, N-acetyl-β-D-hexosaminidase [4]: −5.5%; percentage inhibition, Amyloglucosidase (Amyloglucosidase): 31.7%"
"O=C(O)[C@@H]1NC[C@H](O)[C@@H](O)[C@@H]1O [ido-BR1, (2R,3R,4R,5S)-3,4,5-trihydroxypiperidine-2-carboxylic acid]",26.4,6.1,−2.7,1.0,−28.4,−4.4,5.5,−4.5,very weakly inhibitory,"inhibition at 200 µM (α-D-glucosidase (Yeast); read-out: percentage inhibition, α-D-glucosidase (Yeast)): 4.7%; effect on alpha-mannosidase activity (in words) (α-D-mannosidase): promote alpha-mannosidase activity slightly; PGF2α secretion by LPS-challenged explants versus control (abrogation of inflammation) ([5]; 3.0 μg/ml LPS with 0.5, 25 or 100 μg/ml ido-BR1, 24 h): not significantly different to the control; also recorded: abrogated inflammation in the explants; abrogation of LPS-stimulated PGF2α secretion ([5]; 3.0 μg/ml LPS with ido-BR1, 72 h): not significant; inhibition of glucuronidase (in words) (β-glucuronidase): not inhibitory; percentage inhibition, β-glucuronidase (β-glucuronidase): 2.5%"
